Results: paper PMC10687071 (The Journal of Biological Chemistry, 2023)

Molecular target: T1, PAS domain of EAG1 channels (Mus musculus, UniProt Q60603)
T1 construct: DNA encoding PAS (residues 7–136) of mouse EAG1 channels (GI # Q60603); 6-His (N); TEV protease cleavage site (N); made in house; host or cells: BL21 (DE3) Escherichia coli
T1 sequence (Q60603 7-136): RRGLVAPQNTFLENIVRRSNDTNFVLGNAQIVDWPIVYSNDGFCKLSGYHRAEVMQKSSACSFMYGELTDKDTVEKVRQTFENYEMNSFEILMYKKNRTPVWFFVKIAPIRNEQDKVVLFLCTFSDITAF
Experiment: Surface plasmon resonance, PAS domain immobilized on CM5 chip
Type: binding
Conditions: imipramine 1, 10 and 30 μM; concentration-dependent increase in SPR response; affinity not determined
Method: DNA encoding PAS (residues 7–136) of mouse EAG1 channels (GI # Q60603) was synthesized by BioBasic and subcloned into pETM11 bacterial expression vector containing an N-terminal 6-His affinity tag followed by a tobacco etch virus (TEV) protease cleavage site. The DNA sequences were verified by sequencing (Genewiz). The PAS domains were expressed in BL21 (DE3) Escherichia coli cells as previously described ([25], [63]). The cells were grown at 37 °C to an optical density at 600 nm of 0.6 to 0.8, induced with IPTG at 18 °C overnight and harvested by centrifugation. The cells were resuspended in 150 mM KCl, 1 mM TCEP, 1 mM ABSF, 2.5 mg/ml DNaseI and 30 mM HEPES, pH 7.5. Cells were lysed with an Emulsiflex-C5 (Avestin). Insoluble protein was separated by centrifugation in 45 Ti rotor at 30,000 rpm for 1 h at 4 °C. The PAS domains were purified by Ni^2+ affinity chromatography using HisTrap HP column (Cytiva) and eluted on a linear gradient to 500 mM imidazole. The protein was further purified on a Superdex 200 Increase 10/300 column (Cytiva) equilibrated with 150 mM KCl, 1 mM TCEP, 10% glycerol, and 30 mM HEPES, pH 7.5. The protein concentration was determined with Bradford Protein Assay Kit (Pierce).
All SPR binding experiments were performed on a CM5 chip (Cytiva) at 25 °C using a Biacore T200 Instrument (GE Healthcare). […]

CN(C)CCCN1c2ccccc2CCc2ccccc21 [imipramine]
SPR binding to the immobilized PAS domain: directly binds
